From PubChem BioAssay AID2060609 (Molecular Pharmacology Branch, DTP, NCI, 2025)

Tested on: 855422-203-R-J1-PDC complex spheroids, viability
Experiment: Anticancer human tumor 855422-203-R-J1-PDC patient-derived bladder carcinoma cell line growth inhibition [CLK]
Settings: for IC50: curve of first compound; for viability, T/C: stronger effect = lower value
In short: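 Patient-derived tumor cells grown as complex spheroids with HUVEC endothelial cells and mesenchymal stem cells, treated with drug combinations. Concentrations descend in half-log steps from near clinical Cmax, or from 10 microM if Cmax unknown.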

[1] = second compound 0.0316 µM, first compound 0.0316 µM
[2] = second compound 0.0316 µM, first compound 0.1 µM
[3] = second compound 0.1 µM, first compound 0.0316 µM
[4] = second compound 0.1 µM, first compound 0.1 µM
[5] = second compound 0.316 µM, first compound 0.0316 µM
[6] = second compound 0.316 µM, first compound 0.1 µM
[7] = second compound 1 µM, first compound 0.0316 µM
[8] = second compound 1 µM, first compound 0.1 µM
[9] = second compound 3.16 µM, first compound 0.0316 µM
[10] = second compound 3.16 µM, first compound 0.1 µM
[11] = second compound 10 µM, first compound 0.0316 µM
[12] = second compound 10 µM, first compound 0.1 µM
[13] = second compound 0.0316 µM, first compound 0.316 µM
[14] = second compound 0.0316 µM, first compound 1 µM
[15] = second compound 0.0316 µM, first compound 3.16 µM
[16] = second compound 0.0316 µM, first compound 10 µM
[17] = second compound 0.1 µM, first compound 0.316 µM
[18] = second compound 0.1 µM, first compound 1 µM
[19] = second compound 0.1 µM, first compound 3.16 µM
[20] = second compound 0.1 µM, first compound 10 µM
[21] = second compound 0.316 µM, first compound 0.316 µM
[22] = second compound 0.316 µM, first compound 1 µM
[23] = second compound 0.316 µM, first compound 3.16 µM
[24] = second compound 0.316 µM, first compound 10 µM
[25] = second compound 1 µM, first compound 0.316 µM
[26] = second compound 1 µM, first compound 1 µM
[27] = second compound 1 µM, first compound 3.16 µM
[28] = second compound 1 µM, first compound 10 µM
[29] = second compound 3.16 µM, first compound 0.316 µM
[30] = second compound 3.16 µM, first compound 1 µM
[31] = second compound 3.16 µM, first compound 3.16 µM
[32] = second compound 3.16 µM, first compound 10 µM
[33] = second compound 10 µM, first compound 0.316 µM
[34] = second compound 10 µM, first compound 1 µM
[35] = second compound 10 µM, first compound 3.16 µM
[36] = second compound 10 µM, first compound 10 µM
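Further: spheroids exposed to drugs for seven days before readout.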
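Wherever viability, T/C is given: 100% = DMSO vehicle control wells.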

Cn1ncnc1[C@H]1c2n[nH]c(=O)c3cc(F)cc(c23)N[C@@H]1c1ccc(F)cc1 + CN1CCN(c2cc(C(=O)Nc3cc4cc(-c5cnn(C)c5)ccc4cn3)ccn2)CC1
IC50 (second compound 0.0316 µM): > 100 nM
IC50 (second compound 0.1 µM): > 100 nM
IC50 (second compound 0.316 µM): < 0.316 nM
IC50 (second compound 1 µM): < 0.316 nM
IC50 (second compound 3.16 µM): < 0.316 nM
IC50 (second compound 10 µM): < 0.316 nM
viability, T/C (second compound 0.0316 µM, first compound 0.000316 µM): 97.4%
viability, T/C (second compound 0.0316 µM, first compound 0.001 µM): 101%
viability, T/C (second compound 0.0316 µM, first compound 0.00316 µM): 110%
viability, T/C (second compound 0.0316 µM, first compound 0.01 µM): 104%
viability, T/C [1]: 113%
viability, T/C [2]: 104%
viability, T/C (second compound 0.1 µM, first compound 0.000316 µM): 79.5%
viability, T/C (second compound 0.1 µM, first compound 0.001 µM): 92.6%
viability, T/C (second compound 0.1 µM, first compound 0.00316 µM): 103%
viability, T/C (second compound 0.1 µM, first compound 0.01 µM): 87.4%
viability, T/C [3]: 95.9%
viability, T/C [4]: 83.8%
viability, T/C (second compound 0.316 µM, first compound 0.000316 µM): 5.88%
viability, T/C (second compound 0.316 µM, first compound 0.001 µM): 9.73%
viability, T/C (second compound 0.316 µM, first compound 0.00316 µM): 10.4%
viability, T/C (second compound 0.316 µM, first compound 0.01 µM): 9.1%
viability, T/C [5]: 9.56%
viability, T/C [6]: 8.15%
viability, T/C (second compound 1 µM, first compound 0.000316 µM): 0.17%
viability, T/C (second compound 1 µM, first compound 0.001 µM): 0.23%
viability, T/C (second compound 1 µM, first compound 0.00316 µM): 0.15%
viability, T/C (second compound 1 µM, first compound 0.01 µM): 0.12%
viability, T/C [7]: 4.07%
viability, T/C [8]: 0.15%
viability, T/C (second compound 3.16 µM, first compound 0.000316 µM): 0.48%
viability, T/C (second compound 3.16 µM, first compound 0.001 µM): 0.5%
viability, T/C (second compound 3.16 µM, first compound 0.00316 µM): 0.41%
viability, T/C (second compound 3.16 µM, first compound 0.01 µM): 0.33%
viability, T/C [9]: 0.23%
viability, T/C [10]: 0.84%
viability, T/C (second compound 10 µM, first compound 0.000316 µM): 0.23%
viability, T/C (second compound 10 µM, first compound 0.001 µM): 1.99%
viability, T/C (second compound 10 µM, first compound 0.00316 µM): 0.17%
viability, T/C (second compound 10 µM, first compound 0.01 µM): 0.22%
viability, T/C [11]: 0.17%
viability, T/C [12]: 0.18%

Nc1ccn(C2OC(CO)C(O)C2(F)F)c(=O)n1 (stereo unspecified) + CN1CCN(c2cc(C(=O)Nc3cc4cc(-c5cnn(C)c5)ccc4cn3)ccn2)CC1
IC50 (second compound 0.0316 µM): < 31.6 nM
IC50 (second compound 0.1 µM): < 31.6 nM
IC50 (second compound 0.316 µM): < 31.6 nM
IC50 (second compound 1 µM): < 31.6 nM
IC50 (second compound 3.16 µM): < 31.6 nM
IC50 (second compound 10 µM): < 31.6 nM
viability, T/C [1]: 27.6%
viability, T/C [2]: 15.1%
viability, T/C [13]: 15.8%
viability, T/C [14]: 11.4%
viability, T/C [15]: 9.09%
viability, T/C [16]: 6.12%
viability, T/C [3]: 24.4%
viability, T/C [4]: 15.4%
viability, T/C [17]: 11.5%
viability, T/C [18]: 11.9%
viability, T/C [19]: 5.33%
viability, T/C [20]: 4.86%
viability, T/C [5]: 4.07%
viability, T/C [6]: 3.72%
viability, T/C [21]: 4.47%
viability, T/C [22]: 2.24%
viability, T/C [23]: 1.5%
viability, T/C [24]: 0.93%
viability, T/C [7]: 1.32%
viability, T/C [8]: 0.15%
viability, T/C [25]: 2.17%
viability, T/C [26]: 0.1%
viability, T/C [27]: 0.13%
viability, T/C [28]: 0.13%
viability, T/C [9]: 0.98%
viability, T/C [10]: 3.09%
viability, T/C [29]: 0.39%
viability, T/C [30]: 0.24%
viability, T/C [31]: 1.1%
viability, T/C [32]: 0.29%
viability, T/C [11]: 0.28%
viability, T/C [12]: 0.41%
viability, T/C [33]: 0.24%
viability, T/C [34]: 0.83%
viability, T/C [35]: 0.25%
viability, T/C [36]: 0.23%

O=C(c1cc(Cc2n[nH]c(=O)c3ccccc23)ccc1F)N1CCN(C(=O)C2CC2)CC1 + CN1CCN(c2cc(C(=O)Nc3cc4cc(-c5cnn(C)c5)ccc4cn3)ccn2)CC1
IC50 (second compound 0.0316 µM): > 10000 nM
IC50 (second compound 0.1 µM): > 10000 nM
IC50 (second compound 0.316 µM): < 31.6 nM
IC50 (second compound 1 µM): < 31.6 nM
IC50 (second compound 3.16 µM): < 31.6 nM
IC50 (second compound 10 µM): < 31.6 nM
viability, T/C [1]: 97.5%
viability, T/C [2]: 93.4%
viability, T/C [13]: 94.5%
viability, T/C [14]: 119%
viability, T/C [15]: 106%
viability, T/C [16]: 91.2%
viability, T/C [3]: 79.5%
viability, T/C [4]: 82%
viability, T/C [17]: 86.8%
viability, T/C [18]: 89.6%
viability, T/C [19]: 83.5%
viability, T/C [20]: 80.8%
viability, T/C [5]: 7.7%
viability, T/C [6]: 9.07%
viability, T/C [21]: 12.2%
viability, T/C [22]: 13.9%
viability, T/C [23]: 9.53%
viability, T/C [24]: 7.3%
viability, T/C [7]: 0.24%
viability, T/C [8]: 0.27%
viability, T/C [25]: 0.24%
viability, T/C [26]: 0.2%
viability, T/C [27]: 2.03%
viability, T/C [28]: 0.16%
viability, T/C [9]: 0.76%
viability, T/C [10]: 0.67%
viability, T/C [29]: 1.9%
viability, T/C [30]: 0.61%
viability, T/C [31]: 1.44%
viability, T/C [32]: 0.45%
viability, T/C [11]: 0.43%
viability, T/C [12]: 0.39%
viability, T/C [33]: 0.38%
viability, T/C [34]: 0.33%
viability, T/C [35]: 0.7%
viability, T/C [36]: 0.32%
